In ChEMBL document CHEMBL1157629, “Acetylcholinesterase inhibitors from the toadstool Cortinarius infractus” (Bioorg Med Chem, 2010):
pIC50: −log10 of the molar value. Activity calls are given as the source filed them. The rule behind the calls is not given here.

Legend:
[1] = target: Cholinesterase (Equus caballus) (UniProt P81908); experiment: Inhibition of equine serum BChE at 100 uM by Ellman's method
[2] = Cytotoxicity against human SH-SY5Y cells assessed as cell viability at 100 uM after 24 hrs; assay type: cell-based; settings: read-out: Activity
SH-SY5Y [3] = experiment: Cytotoxicity against human SH-SY5Y cells assessed as LDH release at 100 uM after 24 hrs; assay type: cell-based
Acetylcholinesterase = target: T1, Acetylcholinesterase (Bos taurus, UniProt P23795)
T1 sequence (P23795 whole entry): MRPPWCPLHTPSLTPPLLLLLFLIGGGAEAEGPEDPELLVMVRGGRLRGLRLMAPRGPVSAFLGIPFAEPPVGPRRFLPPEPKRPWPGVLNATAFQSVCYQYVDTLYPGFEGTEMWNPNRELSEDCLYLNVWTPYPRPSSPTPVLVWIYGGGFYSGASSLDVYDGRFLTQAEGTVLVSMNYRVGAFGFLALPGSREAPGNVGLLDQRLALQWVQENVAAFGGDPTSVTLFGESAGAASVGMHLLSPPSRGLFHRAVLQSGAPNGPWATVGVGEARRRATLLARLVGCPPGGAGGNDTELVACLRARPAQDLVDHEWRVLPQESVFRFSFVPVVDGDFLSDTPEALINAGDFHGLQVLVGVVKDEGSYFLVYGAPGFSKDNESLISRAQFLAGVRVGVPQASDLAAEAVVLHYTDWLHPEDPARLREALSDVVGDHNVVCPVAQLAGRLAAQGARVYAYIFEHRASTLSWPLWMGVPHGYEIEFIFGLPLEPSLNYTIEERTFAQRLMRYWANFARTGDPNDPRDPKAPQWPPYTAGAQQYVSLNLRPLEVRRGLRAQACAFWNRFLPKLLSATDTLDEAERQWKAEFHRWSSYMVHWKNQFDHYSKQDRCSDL
Description: Inhibition of bovine AChE by Elman's method

[4] = Inhibition of amyloid beta (1-40) self-aggregation at 25 uM by thioflavin T fluorescence assay
[5] = Cytotoxicity against human HepG2 cells assessed as cell viability at 10 uM after 24 hrs; assay type: cell-based; settings: read-out: Activity
[6] = Cytotoxicity against human SH-SY5Y cells assessed as cell viability at 10 uM after 24 hrs; assay type: cell-based; settings: read-out: Activity
SH-SY5Y [7] = experiment: Cytotoxicity against human SH-SY5Y cells assessed as LDH release at 10 uM after 24 hrs; assay type: cell-based
HepG2 [8] = experiment: Cytotoxicity against human HepG2 cells assessed as LDH release at 100 uM after 24 hrs; assay type: cell-based; settings: hepg2, 24 h
[9] = Cytotoxicity against human HepG2 cells assessed as cell viability at 100 uM after 24 hrs; assay type: cell-based; settings: read-out: Activity
HepG2 [10] = experiment: Cytotoxicity against human HepG2 cells assessed as LDH release at 10 uM after 24 hrs; assay type: cell-based; settings: hepg2, 24 h

Chain of Cholinesterase (Equus caballus) (P81908 whole entry): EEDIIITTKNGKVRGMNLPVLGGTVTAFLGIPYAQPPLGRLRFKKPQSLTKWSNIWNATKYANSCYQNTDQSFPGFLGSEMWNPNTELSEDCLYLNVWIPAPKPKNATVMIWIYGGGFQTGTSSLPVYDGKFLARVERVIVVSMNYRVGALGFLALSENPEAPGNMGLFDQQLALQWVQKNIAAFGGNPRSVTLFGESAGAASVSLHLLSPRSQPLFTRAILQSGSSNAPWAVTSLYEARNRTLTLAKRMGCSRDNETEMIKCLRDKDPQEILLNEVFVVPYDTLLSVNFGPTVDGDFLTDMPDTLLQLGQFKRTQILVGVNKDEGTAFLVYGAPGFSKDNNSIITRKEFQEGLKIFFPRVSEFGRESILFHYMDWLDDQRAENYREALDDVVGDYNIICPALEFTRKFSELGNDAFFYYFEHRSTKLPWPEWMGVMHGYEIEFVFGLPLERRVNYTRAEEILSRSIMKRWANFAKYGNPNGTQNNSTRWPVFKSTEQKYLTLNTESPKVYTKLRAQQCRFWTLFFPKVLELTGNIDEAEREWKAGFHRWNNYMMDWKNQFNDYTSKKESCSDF

| SMILES | inhibition [1] | viability at 24 h, 100 µM [2] [%] | Activity (SH-SY5Y [3]) [%] | pIC50 (Acetylcholinesterase) | inhibition [4] | viability at 24 h, 10 µM [5] [%] | viability at 24 h, 10 µM [6] [%] | Activity (SH-SY5Y [7]) [%] | Activity (HepG2 [8]) [%] | viability at 24 h, 100 µM [9] [%] | Activity (HepG2 [10]) [%] |
| --- | --- | --- | --- | --- | --- | --- | --- | --- | --- | --- | --- |
| O=c1cc2c3c4c(cc[n+]3CCC2)c2cc(O)ccc2n14.[Cl-] | inactive | 98.3 | 0.97 | 4.90 | Active | 98.7 | 96.7 | -1.86 | 0.56 | 101 | 0.13 |
| O=c1cc2c3c4c(cc[n+]3CCC2)c2ccccc2n14.[Cl-] [INFRACTOPICRIN] | inactive | 97.7 | 1.33 | 5.01 | 50% | 100 | 97.1 | -0.07 | 1.48 | 99.1 | 2.23 |
